These results are taken from article PMC10628300, “Dual function of OmpM as outer membrane tether and nutrient uptake channel in diderm Firmicutes” (Nature Communications, 2023).

One assay addresses T1, EcOmpF (Escherichia coli, UniProt P02931).
T1 construct: gene ompF; full-length, untagged (pBAD24-EcOmpF), expressed in E. coli BL21(DE3), purified from outer membranes; trimer; reconstituted in liposomes
T1 sequence (P02931 23-362): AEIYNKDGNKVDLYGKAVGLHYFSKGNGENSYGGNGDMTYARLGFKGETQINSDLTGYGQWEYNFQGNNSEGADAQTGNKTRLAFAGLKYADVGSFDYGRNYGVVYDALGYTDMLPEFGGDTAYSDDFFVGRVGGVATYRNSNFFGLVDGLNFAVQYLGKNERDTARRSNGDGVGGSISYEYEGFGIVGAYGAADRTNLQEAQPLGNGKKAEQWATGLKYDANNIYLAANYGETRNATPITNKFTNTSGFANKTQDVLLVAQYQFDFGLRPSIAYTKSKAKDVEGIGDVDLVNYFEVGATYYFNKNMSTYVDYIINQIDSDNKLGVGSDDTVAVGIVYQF
Put plainly: proteoliposome swelling, decrease in A400. Type of assay: biochemical. As to conditions: diffusive transport through general porin, no binding constant, 10 mM HEPES-NaOH pH 7.5, 12 mM stachyose inside.

Assay [1] concerns the target T2, FNLLGLLA_00518 β-barrel (OmpA-like) (Veillonella parvula, UniProt A0AB38YQ02).
T2 construct: gene CYJ21_000020; beta-barrel region, residues 21-200 (from plasmid name pB22-00518_21-200); TamB signal peptide and N-terminal His7; expressed in E. coli C43(DE3) delta-cyoABCD; reconstituted in liposomes
Put plainly: proteoliposome swelling, decrease in A400. Type of assay: biochemical. As to conditions: diffusive transport through channel, no binding constant; much slower than VpOmpM1 and EcOmpF; 10 mM HEPES-NaOH pH 7.5, 12 mM stachyose inside.

The target in a further assay is T3, VpOmpM1 (full-length) (Veillonella parvula, UniProt A0A100YN03).
T3 construct: gene KHZ90_07665; full-length without native signal peptide; E. coli TamB signal peptide and N-terminal His7 added (pJW46); expressed in E. coli C43(DE3) delta-cyoABCD; homotrimer; reconstituted in liposomes
Put plainly: proteoliposome swelling, decrease in A400. Type of assay: biochemical. As to conditions: diffusive transport through general porin, no binding constant; 10 mM HEPES-NaOH pH 7.5, 12 mM stachyose inside; rates normalised to EcOmpF with arabinose.

Assay [2] has as its target VpOmpM1 (OmpM1 from Veillonella parvula), full-length, expressed in E. coli (Veillonella parvula). Put plainly: cryo-EM structure; single particle; purified VpOmpM1 from E. coli (11.6 mg/ml) or V. parvula (8 mg/ml) in DM detergent, grids plunge-frozen at 4 °C; reconstructions without symmetry (C1) and with C3.
In assay [3] the target is VpOmpM1 stalk construct (residues 22-107) (Veillonella parvula). Put plainly: crystal structure; stalk construct 22-107 at ~20 mg/ml; 0.1 M citric acid pH 3.5, 2.0 M ammonium sulphate, 20 °C; three chains in the asymmetric unit.

With `OC1OC[C@H](O)[C@H](O)[C@H]1O` (some centres unmarked) [arabinose], on EcOmpF (reference condition to which all rates are normalised), the “proteoliposome swelling, decrease in A400” value was “All data were normalized to EcOmpF-containing liposome swelling in the presence of arabinose”. Turning to `NCC(=O)O` [glycine], the “proteoliposome swelling, decrease in A400” value in assay [1] was “could only transport putrescine and glycine at much slower rates than VpOmpM1 and EcOmpF”. With `C[C@H](O)C(=O)O` [lactate], the “proteoliposome swelling, decrease in A400” value at VpOmpM1 (full-length) is “VpOmpM1 could transport lactate, which is essential for V. parvula growth, and putrescine”.

As for `NCCCCN` [putrescine], the “proteoliposome swelling, decrease in A400” value at VpOmpM1 (full-length) was “VpOmpM1 could transport lactate, which is essential for V. parvula growth, and putrescine”; in assay [1] it was “could only transport putrescine and glycine at much slower rates than VpOmpM1 and EcOmpF”; at EcOmpF (rates normalised to EcOmpF with arabinose), “putrescine and glycine at much slower rates than VpOmpM1 and EcOmpF”. The molecule “VpOmpM1 (OmpM1 from Veillonella parvula), full-length, expressed in E. coli (natural protein)” yielded a stoichiometry N in assay [2] of 3. “VpOmpM1 stalk construct (residues 22-107) (domain or fragment)”: the stoichiometry N in assay [3] amounted to 3.

A word on the stoichiometry N: it is a count of units in the complex or per binding partner.
